This test addresses T1, ALK (baculovirus expressed human ALK kinase domain F1098-K1410) (Homo sapiens, UniProt Q9UM73).
T1 construct: human ALK kinase domain F1098-K1410; made in house
Nature of the test: biochemical. Particulars: 1 μM ATP, 4 μM poly-AEKY, 12 nM ALK, 2 hours at ambient temperature; read-out: ALK IC50. A digest of the protocol:
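Baculovirus-expressed human ALK kinase domain (F1098-K1410) was run in a luciferase-coupled chemiluminescent format, with ATP near its KM. After 2 h at ambient temperature, remaining ATP was read by luciferase-luciferin luminescence. IC50 came from 10-point dose-response curves fitted to a four-parameter equation with Hill slope.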

SMILES strings stand for the structures. pIC50: −log10 of the molar value.

T1 sequence (Q9UM73 1098-1410): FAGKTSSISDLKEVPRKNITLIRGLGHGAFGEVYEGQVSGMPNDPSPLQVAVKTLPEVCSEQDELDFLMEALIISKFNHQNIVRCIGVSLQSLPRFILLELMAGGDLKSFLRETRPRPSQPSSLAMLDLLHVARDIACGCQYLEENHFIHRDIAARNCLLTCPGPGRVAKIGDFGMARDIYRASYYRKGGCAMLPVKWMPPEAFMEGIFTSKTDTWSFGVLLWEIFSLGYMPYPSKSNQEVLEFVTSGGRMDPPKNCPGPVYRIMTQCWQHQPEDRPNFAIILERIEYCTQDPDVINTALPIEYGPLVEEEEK

With `CC1CCCCC1NC(=O)c1csc(CNC(=O)COc2ccc(OC(F)(F)F)cc2)n1` (centres unmarked) [Entry 87, N-(2-methylcyclohexyl)-2-({[({4-[(trifluoromethyl)oxy]phenyl}oxy)acetyl]amino}methyl)-1,3-thiazole-4-carboxamide], the pIC50 was 6.30 to 7.30.
Under `CCN(CC)C1CCN(C(=O)c2csc(CNC(=O)COc3ccc(OC(F)(F)F)cc3)n2)C1` (centres unmarked) [Entry 311, N-[(4-{[3-(diethylamino)pyrrolidin-1-yl]carbonyl}-1,3-thiazol-2-yl)methyl]-2-({4-[(trifluoromethyl)oxy]phenyl}oxy)acetamide] stands < 5.70.
Under `O=C(CNC(=O)c1ccc([N+](=O)[O-])cc1)NCc1nc(C(=O)NCCc2cccc(Cl)c2)cs1` [Entry 136, N-[2-(3-chlorophenyl)ethyl]-2-[({N-[(4-nitrophenyl)carbonyl]glycyl}amino)methyl]-1,3-thiazole-4-carboxamide] stands 6.30 to 7.30; under `CC(C)c1ccc(NC(=O)NCc2nc(C(=O)NCCc3ccccc3F)cs2)cc1` [Entry 27, N-[2-(2-fluorophenyl)ethyl]-2-{[({[4-(1-methylethyl)phenyl]amino}carbonyl)amino]methyl}-1,3-thiazole-4-carboxamide], > 7.30.
Under `NCc1nc(C(=O)NCCc2cccc(Cl)c2)cs1` [Entry 300, 2-(aminomethyl)-N-[2-(3-chlorophenyl)ethyl]-1,3-thiazole-4-carboxamide] stands < 5.70.
For `NC(=O)[C@@H](Cc1ccccc1)NC(=O)c1csc(CNC(=O)COc2ccc(OC(F)(F)F)cc2)n1` [Entry 70, Nalpha-{[2-({[({4-[(trifluoromethyl)oxy]phenyl}oxy)acetyl]amino}methyl)-1,3-thiazol-4-yl]carbonyl}-D-phenylalaninamide], the pIC50 was 6.30 to 7.30.
Under `CCCCOCCCNC(=O)c1csc(CNC(=O)COc2ccc(OC(F)(F)F)cc2)n1` [Entry 37, N-[3-(butyloxy)propyl]-2-({[({4-[(trifluoromethyl)oxy]phenyl}oxy)acetyl]amino}methyl)-1,3-thiazole-4-carboxamide] stands 6.30 to 7.30.
As to `O=C(COc1ccc(OC(F)(F)F)cc1)NCc1nc(C(=O)N2CC[C@H]3CCCC[C@@H]3C2)cs1` [Entry 266, N-({4-[(4aR,8aS)-octahydroisoquinolin-2(1H)-ylcarbonyl]-1,3-thiazol-2-yl}methyl)-2-({4-[(trifluoromethyl)oxy]phenyl}oxy)acetamide], the pIC50 is 5.70 to 6.30.
Under `O=C(COc1ccc(OC(F)(F)F)cc1)NCc1nc(C(=O)NCCc2ccccn2)co1` [Entry 296, N-(2-pyridin-2-ylethyl)-2-({[({4-[(trifluoromethyl)oxy]phenyl}oxy)acetyl]amino}methyl)-1,3-oxazole-4-carboxamide] stands 5.70 to 6.30; under `COc1cccc(CNC(=O)c2coc(CNC(=O)COc3ccc(OC(F)(F)F)cc3)n2)c1OC` [Entry 223, N-{[2,3-bis(methyloxy)phenyl]methyl}-2-({[({4-[(trifluoromethyl)oxy]phenyl}oxy)acetyl]amino}methyl)-1,3-oxazole-4-carboxamide], 5.70 to 6.30; under `C[C@@H](NC(=O)c1csc(CNC(=O)COc2ccc(OC(F)(F)F)cc2)n1)C(C)(C)C` [Entry 233, 2-({[({4-[(trifluoromethyl)oxy]phenyl}oxy)acetyl]amino}methyl)-N-[(1R)-1,2,2-trimethylpropyl]-1,3-thiazole-4-carboxamide], 5.70 to 6.30.
For the molecule `O=C(COc1ccc(OC(F)(F)F)cc1)NCc1nc(C(=O)NCCC2=CCCCC2)cs1` [Entry 35, N-(2-cyclohex-1-en-1-ylethyl)-2-({[({4-[(trifluoromethyl)oxy]phenyl}oxy)acetyl]amino}methyl)-1,3-thiazole-4-carboxamide], the pIC50 is 6.30 to 7.30.
Under `O=C(NCCc1ccccc1F)c1csc(CNC(=O)c2cccnc2Oc2ccc(Cl)cc2)n1` [Entry 129, 2-[(4-chlorophenyl)oxy]-N-{[4-({[2-(2-fluorophenyl)ethyl]amino}carbonyl)-1,3-thiazol-2-yl]methyl}pyridine-3-carboxamide] stands 6.30 to 7.30; under `O=C(COc1ccc(OC(F)(F)F)cc1)NCc1nc(C(=O)NCc2ccccc2Cl)cs1` [Entry 32, N-[(2-chlorophenyl)methyl]-2-({[({4-[(trifluoromethyl)oxy]phenyl}oxy)acetyl]amino}methyl)-1,3-thiazole-4-carboxamide], 6.30 to 7.30; under `Cc1ccc(F)cc1CNC(=O)c1csc(CNC(=O)COc2ccc(OC(F)(F)F)cc2)n1` [Entry 47, N-[(5-fluoro-2-methylphenyl)methyl]-2-({[({4-[(trifluoromethyl)oxy]phenyl}oxy)acetyl]amino}methyl)-1,3-thiazole-4-carboxamide], 6.30 to 7.30.
Under `NS(=O)(=O)c1ccc(CCNC(=O)c2coc(CNC(=O)COc3ccc(OC(F)(F)F)cc3)n2)cc1` [Entry 92, N-{2-[4-(aminosulfonyl)phenyl]ethyl}-2-({[({4-[(trifluoromethyl)oxy]phenyl}oxy)acetyl]amino}methyl)-1,3-oxazole-4-carboxamide] stands 6.30 to 7.30; under `O=C(COc1ccc(OC(F)(F)F)cc1)NCc1nc(C(=O)O)cs1` [Entry 302, 2-({[({4-[(trifluoromethyl)oxy]phenyl}oxy)acetyl]amino}methyl)-1,3-thiazole-4-carboxylic acid], < 5.70.
Under `O=C(COc1ccc(OC(F)(F)F)cc1)NCc1nc(C(=O)NC(Cc2ccccc2)c2ccccc2)cs1` (centres unmarked) [Entry 222, N-(1,2-diphenylethyl)-2-({[({4-[(trifluoromethyl)oxy]phenyl}oxy)acetyl]amino}methyl)-1,3-thiazole-4-carboxamide] stands 5.70 to 6.30.
Consider `O=C(COc1ccc(OC(F)(F)F)cc1)NCc1nc(C(=O)NCc2ccc(Cl)cc2Cl)cs1` [Entry 64, N-[(2,4-dichlorophenyl)methyl]-2-({[({4-[(trifluoromethyl)oxy]phenyl}oxy)acetyl]amino}methyl)-1,3-thiazole-4-carboxamide], for which the pIC50 is 6.30 to 7.30.
Under `O=C(COc1ccc(OC(F)(F)F)cc1)NCc1nc(C(=O)NC2CCc3ccccc32)cs1` (centres unmarked) [Entry 182, N-(2,3-dihydro-1H-inden-1-yl)-2-({[({4-[(trifluoromethyl)oxy]phenyl}oxy)acetyl]amino}methyl)-1,3-thiazole-4-carboxamide] stands 6.30 to 7.30.
Under `CC(NC(=O)c1csc(CNC(=O)COc2ccc(OC(F)(F)F)cc2)n1)c1cccc2ccccc12` (centres unmarked) [Entry 85, N-(1-naphthalen-1-ylethyl)-2-({[({4-[(trifluoromethyl)oxy]phenyl}oxy)acetyl]amino}methyl)-1,3-thiazole-4-carboxamide] stands 6.30 to 7.30; under `CC(C)(C)OC(=O)NC1CCN(C(=O)c2csc(CNC(=O)COc3ccc(OC(F)(F)F)cc3)n2)CC1` [Entry 254, 1,1-dimethylethyl(1-{[2-({[({4-[(trifluoromethyl)oxy]phenyl}oxy)acetyl]amino}methyl)-1,3-thiazol-4-yl]carbonyl}piperidin-4-yl)carbamate], 5.70 to 6.30; under `O=C(Cc1ccc2ccccc2c1)NCc1nc(C(=O)NCCc2ccccc2F)cs1` [Entry 169, N-[2-(2-fluorophenyl)ethyl]-2-{[(naphthalen-2-ylacetyl)amino]methyl}-1,3-thiazole-4-carboxamide], 6.30 to 7.30.

The term pIC50 denotes the IC50 on a negative log10 scale, so that one unit is a factor of ten.

The values above are taken from patent US7973061B2, “Anaplastic lymphoma kinase modulators and methods of use” (Exelixis, Inc., priority 2004, dated 2011).
